According to patent publication US11795169B2, “MAP4K4 inhibitors” (IMPERIAL COLLEGE INNOVATIONS LIMITED, priority 2017, dated 2023):
Counter-ions that a name gives are not always drawn.

Biological target: human MAP4K4 kinase domain (Homo sapiens (Human), UniProt O95819)
Assay: MAP4K4 kinase activity, CisBio HTRF Transcreener ADP assay
Type: biochemical
Conditions: ATP at Km (10 μM), 0.5 nM kinase domain, 2 h; read-out: MAP4K4
Description: Compounds of the present invention were screened for their inhibitory activity against MAP4K4, versus selected off-target hits found with early members of this chemical series. MAP4K4 kinase activity was monitored using the CisBio HTRF Transcreener ADP assay, acompetitive immunoassay with a reproducible Z′>0.6. In the detection step, endogenous ADP and d2-labeled ADP compete for binding an anti-ADP monoclonal antibody labelled with Eu^3+ cryptate. A ratiometric fluorescent read-out is used at 665 and 620 nm. […] Assays were run in Greiner low volume plates with a final reaction volume of 10 μl. The MAP4K4 inhibition data are provided in Table 33 below for selected compounds of the present invention. The data has been categorised based on the IC50 value of the compound as “A”, “B” or “C”.

human MAP4K4 kinase domain, sequence (O95819 25-289): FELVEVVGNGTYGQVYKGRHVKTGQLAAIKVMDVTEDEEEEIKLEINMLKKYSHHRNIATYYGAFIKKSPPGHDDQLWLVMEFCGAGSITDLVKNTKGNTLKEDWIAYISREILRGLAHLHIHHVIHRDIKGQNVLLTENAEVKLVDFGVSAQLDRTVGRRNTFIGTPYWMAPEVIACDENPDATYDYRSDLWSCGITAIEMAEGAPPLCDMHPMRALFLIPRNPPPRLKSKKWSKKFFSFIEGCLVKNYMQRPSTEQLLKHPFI

| Structure (SMILES) | IC50 [nM] |
| --- | --- |
| O=C(Nc1ccc(-c2cn(-c3ccccc3)c3nc[nH]c(=O)c23)cc1)N1CCC(O)C1 (racemic) [compound 39] | ≤ 100 |
| O=C(O)c1ccc(-n2cc(-c3ccccc3)c3c(=O)[nH]cnc32)cc1 [Ex-1, 4-(4-Oxo-5-phenyl-3,4-dihydro-pyrrolo[2,3-d]pyrimidin-7-yl)-benzoic acid] | 100 to 1000 |
| NC(=O)c1cccc(-n2cc(-c3ccccc3)c3c(=O)[nH]cnc32)c1 [Ex-2] | ≤ 100 |
| CS(=O)(=O)c1ccc(-n2cc(-c3ccccc3)c3c(=O)[nH]cnc32)cc1 [Ex-3] | > 1000 |
| O=c1[nH]cnc2c1c(-c1ccccc1)cn2-c1ccc(Cn2ccnc2)cc1 [Ex-4] | > 1000 |
| CNC(=O)c1ccc(-n2cc(-c3ccccc3)c3c(=O)[nH]cnc32)cc1 [Ex-5, N-Methyl-4-(4-oxo-5-phenyl-3,4-dihydro-pyrrolo[2,3-d]pyrimidin-7-yl)-benzamide] | > 1000 |
| NC(=O)c1ccc(-n2cc(-c3ccccc3)c3c(=O)[nH]cnc32)cc1 [Ex-6] | 100 to 1000 |
| CC(C)(O)COc1ccc(-c2cn(-c3ccccc3)c3nc[nH]c(=O)c23)cc1C#N [Ex-7, 2-(2-Hydroxy-2-methylpropoxy)-5-(4-oxo-7-phenyl-4,7-dihydro-3H-pyrrolo[2,3-d]pyrimidin-5-yl)benzonitrile] | ≤ 100 |
| N#Cc1cccc(-c2cn(-c3ccccc3)c3nc[nH]c(=O)c23)c1 [Ex-8] | ≤ 100 |
| CC(=O)Nc1ccc(-c2cn(-c3ccccc3)c3nc[nH]c(=O)c23)cc1 [Ex-9] | ≤ 100 |
| CCOC(=O)Cc1ccc(-c2cn(-c3ccccc3)c3nc[nH]c(=O)c23)cc1 [Ex-10, [4-(4-oxo-7-phenyl-4,7-dihydro-3H-pyrrolo[2,3-d]pyrimidin-5-yl)-phenyl]-acetic acid ethyl ester] | ≤ 100 |
| N#Cc1ccc(-c2cn(-c3ccccc3)c3nc[nH]c(=O)c23)cc1 [Ex-11, 4-(4-oxo-7-phenyl-4,7-dihydro-3H-pyrrolo[2,3-d]pyrimidin-5-yl)-benzonitrile] | ≤ 100 |
| CC(=O)Nc1cccc(-c2cn(-c3ccccc3)c3nc[nH]c(=O)c23)c1 [Ex-12] | 100 to 1000 |
| O=c1[nH]cnc2c1c(-c1ccc(Cn3ccnc3)cc1)cn2-c1ccccc1 [Ex-13] | ≤ 100 |
| O=C(CO)Nc1ccc(-c2cn(-c3ccccc3)c3nc[nH]c(=O)c23)cc1 [Ex-14] | ≤ 100 |
| CN(C)CCOc1ccc(-c2cn(-c3ccccc3)c3nc[nH]c(=O)c23)cc1 [Ex-15] | ≤ 100 |
| O=C(CN1CCOCC1)Nc1ccc(-c2cn(-c3ccccc3)c3nc[nH]c(=O)c23)cc1 [Ex-16] | ≤ 100 |
| CN1CCN(CC(=O)Nc2ccc(-c3cn(-c4ccccc4)c4nc[nH]c(=O)c34)cc2)CC1 [Ex-17] | ≤ 100 |
| CN1CCN(CC(=O)Nc2ccc(-c3cn(-c4cccc(F)c4)c4nc[nH]c(=O)c34)cc2)CC1 [Ex-18] | ≤ 100 |
| O=C1CCCN1c1ccc(-c2cn(-c3ccccc3)c3nc[nH]c(=O)c23)cc1 [Ex-19] | ≤ 100 |
| O=C1CCCCN1c1ccc(-c2cn(-c3ccccc3)c3nc[nH]c(=O)c23)cc1 [Ex-20] | 100 to 1000 |
| CN(C)CCNC(=O)c1cccc(-c2cn(-c3ccccc3)c3nc[nH]c(=O)c23)c1 [Ex-21] | > 1000 |
| COc1ccc(-c2cn(-c3ccccc3)c3nc[nH]c(=O)c23)cc1 [Ex-23] | ≤ 100 |
| CN(C)CC(=O)Nc1cccc(-c2cn(-c3ccccc3)c3nc[nH]c(=O)c23)c1 [Ex-24] | > 1000 |

| Structure (SMILES) | IC50 [nM] |
| --- | --- |
| O=C1CCCN1c1ccc(-c2cn(-c3cccc(F)c3)c3nc[nH]c(=O)c23)cc1 [Ex-25] | ≤ 100 |
| CN(C)CCCOc1ccc(-c2cn(-c3ccccc3)c3nc[nH]c(=O)c23)cc1 [Ex-26] | ≤ 100 |
| COC(COc1ccc(-c2cn(-c3ccccc3)c3nc[nH]c(=O)c23)cc1)CN1CCOCC1 (centres unmarked) [Ex-28] | ≤ 100 |
| CN1CCN(c2ccc(-c3cn(-c4ccccc4)c4nc[nH]c(=O)c34)cc2)C1=O [Ex-29] | ≤ 100 |
| O=c1[nH]cnc2c1c(-c1ccccc1Cl)cn2-c1ccccc1 [Ex-30] | 100 to 1000 |
| CN(C)Cc1cccc(-c2cn(-c3ccccc3)c3nc[nH]c(=O)c23)c1 [Ex-31] | > 1000 |
| CN(Cc1cccc(-c2cn(-c3ccccc3)c3nc[nH]c(=O)c23)c1)C(=O)OC(C)(C)C [Ex-32] | 100 to 1000 |
| CN(C)CCN1CCN(c2ccc(-c3cn(-c4ccccc4)c4nc[nH]c(=O)c34)cc2)C1=O [Ex-33] | ≤ 100 |
| O=c1[nH]cnc2c1c(-c1c(F)cccc1F)cn2-c1ccccc1 [Ex-34] | 100 to 1000 |
| CN1CCN(CCCOc2ccc(-c3cn(-c4ccccc4)c4nc[nH]c(=O)c34)cc2)CC1 [Ex-35] | ≤ 100 |
| O=c1[nH]cnc2c1c(-c1ccc(OCCCO)cc1)cn2-c1ccccc1 [Ex-36] | ≤ 100 |
| CC(C)(O)CN1CCN(c2ccc(-c3cn(-c4ccccc4)c4nc[nH]c(=O)c34)cc2)C1=O [Ex-37] | ≤ 100 |
| O=C1COCCN1CC(O)COc1ccc(-c2cn(-c3ccccc3)c3nc[nH]c(=O)c23)cc1 (centres unmarked) [Ex-38] | ≤ 100 |
| COc1cccc(-n2cc(-c3ccc(OCC(O)CN4CCOCC4)cc3)c3c(=O)[nH]cnc32)c1 (centres unmarked) [Ex-41, 5-[4-(2-Hydroxy-3-morpholin-4-yl-propoxy)-phenyl]-7-(3-methoxy-phenyl)-3,7-dihydro-pyrrolo[2,3-d]pyrimidin-4-one] | ≤ 100 |
| O=c1[nH]cnc2c1c(-c1ccc(OCC(O)CN3CCOCC3)cc1)cn2-c1ccccc1 (centres unmarked) [Ex-42] | ≤ 100 |
| O=c1[nH]cnc2c1c(-c1ccc(OCC(O)CN3CCOCC3)cc1)cn2-c1cccc(F)c1 (centres unmarked) [Ex-43] | ≤ 100 |
| O=C(NCCO)c1cccc(-c2cn(-c3ccccc3)c3nc[nH]c(=O)c23)c1 [Ex-44] | > 1000 |
| O=c1[nH]cnc2c1c(-c1cccc(CO)c1)cn2-c1ccccc1 [Ex-45] | ≤ 100 |
| CN(C)CC(O)COc1ccc(-c2cn(-c3ccccc3)c3nc[nH]c(=O)c23)cc1 (centres unmarked) [Ex-46] | ≤ 100 |
| O=c1[nH]cnc2c1c(-c1cccc(OCCO)c1)cn2-c1ccccc1 [Ex-47] | 100 to 1000 |
| CN1CCN(CC(O)COc2ccc(-c3cn(-c4ccccc4)c4nc[nH]c(=O)c34)cc2)CC1 (centres unmarked) [Ex-48] | ≤ 100 |
| N#Cc1cc(-c2cn(-c3ccccc3)c3nc[nH]c(=O)c23)ccc1OCC(O)CN1CCOCC1 (centres unmarked) [Ex-49] | ≤ 100 |
| CN1CCN(CC(O)COc2ccc(-c3cn(-c4ccccc4)c4nc[nH]c(=O)c34)cc2)CC1=O (centres unmarked) [Ex-50] | ≤ 100 |
| O=c1[nH]cnc2c1c(-c1ccc(OCC(O)CN3CCS(=O)(=O)CC3)cc1)cn2-c1ccccc1 (centres unmarked) [Ex-51] | ≤ 100 |

| Structure (SMILES) | IC50 [nM] |
| --- | --- |
| C[C@@H](O)COc1ccc(-c2cn(-c3ccccc3)c3nc[nH]c(=O)c23)cc1 [Ex-52] | ≤ 100 |
| C[C@H](O)COc1ccc(-c2cn(-c3ccccc3)c3nc[nH]c(=O)c23)cc1 [Ex-53] | ≤ 100 |
| O=C1N(CCO)CCN1c1ccc(-c2cn(-c3ccccc3)c3nc[nH]c(=O)c23)cc1 [Ex-55, 5-{4-[3-(2-Hydroxy-ethyl)-2-oxo-imidazolidin-1-yl]-phenyl}-7-phenyl-3,7-dihydro-pyrrolo[2,3-d]pyrimidin-4-one] | ≤ 100 |
| Cc1cc(OCCO)ccc1-c1cn(-c2ccccc2)c2nc[nH]c(=O)c12 [Ex-57] | ≤ 100 |
| O=c1[nH]cnc2c1c(-c1ccc(N3CCCC3)cc1)cn2-c1ccccc1 [Ex-62] | ≤ 100 |
| CC(C)(C)OC(=O)NCCOc1ccc(-c2cn(-c3ccccc3)c3nc[nH]c(=O)c23)cc1 [Ex-63] | 100 to 1000 |
| CC(C)(O)COc1ccc(-c2cn(-c3ccccc3)c3nc[nH]c(=O)c23)cc1 [Ex-64] | ≤ 100 |
| COCCOc1ccc(-c2cn(-c3cccc(F)c3)c3nc[nH]c(=O)c23)cc1 [Ex-65] | ≤ 100 |
| O=c1[nH]cnc2c1c(-c1ccccc1F)cn2-c1ccccc1 [Ex-66] | 100 to 1000 |
| CN1CC(COc2ccc(-c3cn(-c4ccccc4)c4nc[nH]c(=O)c34)cc2)C1 [Ex-67] | 100 to 1000 |
| O=c1[nH]cnc2c1c(-c1ccc(OCC(O)CO)cc1)cn2-c1ccccc1 (centres unmarked) [Ex-68] | ≤ 100 |
| O=c1[nH]cnc2c1c(-c1ccc(OCC3(O)COC3)cc1)cn2-c1ccccc1 [Ex-69] | ≤ 100 |
| O=c1[nH]cnc2c1c(-c1ccc(OCCO)cc1)cn2-c1ccccc1 [Ex-70] | ≤ 100 |
| CC(=O)NCc1cccc(-c2cn(-c3ccccc3)c3nc[nH]c(=O)c23)c1 [Ex-71, N-[3-(4-Oxo-7-phenyl-4,7-dihydro-3H-pyrrolo[2,3-d]pyrimidin-5-yl)-benzyl]-acetamide] | 100 to 1000 |
| NCc1ccc(-c2cn(-c3ccccc3)c3nc[nH]c(=O)c23)cc1 [Ex-74, 5-(4-Aminomethyl-phenyl)-7-phenyl-3,7-dihydro-pyrrolo[2,3-d]pyrimidin-4-one] | 100 to 1000 |
| NCc1cccc(-c2cn(-c3ccccc3)c3nc[nH]c(=O)c23)c1 [Ex-75] | 100 to 1000 |
| NCC(=O)Nc1ccc(-c2cn(-c3ccccc3)c3nc[nH]c(=O)c23)cc1 [Ex-76] | ≤ 100 |
| CNCC(=O)Nc1ccc(-c2cn(-c3ccccc3)c3nc[nH]c(=O)c23)cc1 [Ex-77] | ≤ 100 |
| NCCOc1ccc(-c2cn(-c3ccccc3)c3nc[nH]c(=O)c23)cc1 [Ex-78] | ≤ 100 |
| CNCc1cccc(-c2cn(-c3ccccc3)c3nc[nH]c(=O)c23)c1 [Ex-79] | > 1000 |
| O=c1[nH]cnc2c1c(-c1ccc(OCC3CNC3)cc1)cn2-c1ccccc1 [Ex-80, 5-[4-(Azetidin-3-ylmethoxy)-phenyl]-7-phenyl-3,7-dihydro-pyrrolo[2,3-d]pyrimidin-4-one-formate salt] | ≤ 100 |
| CNCCC(=O)Nc1ccc(-c2cn(-c3ccccc3)c3nc[nH]c(=O)c23)cc1 [Ex-81] | ≤ 100 |
| O=C(O)Cc1ccc(-c2cn(-c3ccccc3)c3nc[nH]c(=O)c23)cc1 [Ex-82, [4-(4-Oxo-7-phenyl-4,7-dihydro-3H-pyrrolo[2,3-d]pyrimidin-5-yl)-phenyl]-acetic acid] | ≤ 100 |
